Laboratory results published in patent US12365687B2 (Hoffmann-La Roche Inc., priority 2021, dated 2025).

Legend:
[1] = target: human GABAA α2β2γ1 receptor (Homo sapiens (Human), UniProt P47869+Q8N1C3); assay: Radioligand binding assay for γ1-containing GABAA subtypes, [3H]RO7239181 competition (α2β2γ1)
[2] = target: human GABAA α5β2γ1 receptor (Homo sapiens (Human), UniProt P31644+Q8N1C3); assay: Radioligand binding assay for γ1-containing GABAA subtypes, [3H]RO7239181 competition (α5β2γ1)
[3] = target: human GABAA α1β3γ2 receptor (Homo sapiens (Human), UniProt P14867+P18507); assay: Radioligand binding assay for γ2-containing GABAA subtypes, [3H]Flumazenil competition (α1β3γ2); details: for γ2/γ1 Selectivity Ratio: Ki α1β3γ2 (nM)/Ki α2β2γ1 (nM); for LogSel: Log[Ki α1β3γ2 (nM)/Ki α2β2γ1 (nM)]
[4] = target: α2β2γ1 GABAA receptor subtype (Homo sapiens (Human), UniProt P47869+Q8N1C3); assay: Two-electrode voltage clamp electrophysiology in Xenopus oocytes expressing GABAA receptors (modulation of GABA EC20 current); assay type: cell-based; details: for Efficacy (GABA)%: % modulation of GABA EC20 = 100*(Fold increase-1), α2β2γ1 oocytes, compound at approx. 30-fold Ki; for Fold increase h-GABA-A α2β2γ1 oocyte @ 30-fold Ki: Xenopus oocytes expressing α2β2γ1, compound at approx. 30-fold its Ki α2β2γ1, GABA EC20 current
In short: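 Each concentration was tested on ≥3 oocytes held at −80 mV at room temperature, recorded 3-5 days post-injection. A control and a test response to EC20 GABA (1.5 min each) were superimposed and their point-by-point ratio taken. Peak ratio reported as % modulation of GABA EC20 = 100×(fold increase−1).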

[5] = Ki h-GABAA α2β2γ1, [3H]RO7239181 competition binding, human GABAA α2β2γ1
[6] = Ki h-GABAA α2β2γ1, displacement of [3H]RO7239181, membranes of HEK293F cells expressing human receptors, means of two determinations

Structure (SMILES)	Ki [1, 5] [nM]	Ki [1, 6] [nM]	Ki [2] [nM]	Ki [3] [nM]	γ2/γ1 Selectivity Ratio [3]	LogSel [3]	Efficacy (GABA)% [4] [%]	Fold increase h-GABA-A α2β2γ1 oocyte @ 30-fold Ki [4]
C[C@@H]1N=C(c2ncccc2F)c2c(ccc(C(F)(F)F)c2Cl)-n2nc(C(=O)N3CC4(CCCO4)C3)nc21 [Example 113, [(4S)-7-chloro-6-(3-fluoro-2-pyridyl)-4-methyl-8-(trifluoromethyl)-4H-[1,2,4]triazolo[1,5-a][1,4]benzodiazepin-2-yl]-(5-oxa-2-azaspiro[3,4]octan-2-yl)methanone]	18.9	18.9	7.04	11400	604.3	2.78	76	1.76
C[C@@H]1N=C(c2ncccc2F)c2c(ccc(C(F)(F)F)c2Cl)-n2cc(CO)nc21 [Example 153, [(4S)-7-chloro-6-(3-fluoro-2-pyridyl)-4-methyl-8-(trifluoromethyl)-4H-imidazo[1,2-a][1,4]benzodiazepin-2-yl]methanol]	62.4	61.7	6.76	6020	97.7	1.99	247	3.47
C[C@@H]1N=C(c2c(F)cccc2F)c2c(ccc(C(F)(F)F)c2Cl)-n2nc(C(=O)NN3CCCC3)nc21 [Example 118, (4S)-7-chloro-6-(2,6-difluorophenyl)-4-methyl-N-pyrrolidin-1-yl-8-(trifluoromethyl)-4H-[1,2,4]triazolo[1,5-a][1,4]benzodiazepine-2-carboxamide]	24.4	24.4	4.18	4450	182.7	2.26	120	2.20
C[C@@H]1N=C(c2ncccc2F)c2c(ccc(Cl)c2Cl)-n2nc(C(=O)N3CC[C@@H](F)C3)nc21 [Example 78, [(4S)-7,8-dichloro-6-(3-fluoro-2-pyridyl)-4-methyl-4H-[1,2,4]triazolo[1,5-a][1,4]benzodiazepin-2-yl]-[(3R)-3-fluoropyrrolidin-1-yl]methanone]	96.3	96.3	18.6	6900	71.6	1.86	98	1.98
C[C@@H]1N=C(c2c(F)cccc2F)c2c(ccc(Cl)c2Cl)-n2nc(C(=O)N3CC[C@H](F)C3)nc21 [Example 80, [(4S)-7,8-dichloro-6-(2,6-difluorophenyl)-4-methyl-4H-[1,2,4]triazolo[1,5-a][1,4]benzodiazepin-2-yl]-[(3S)-3-fluoropyrrolidin-1-yl]methanone]	14.3	14.3	1.9	979	68.5	1.84	89	1.89
Fc1cccc(F)c1C1=NCc2nc(C(F)F)nn2-c2ccc(Cl)c(Cl)c21 [Example 33, 7,8-dichloro-2-(difluoromethyl)-6-(2,6-difluorophenyl)-4H-[1,2,4]triazolo[1,5-a][1,4]benzodiazepine]	10.8	10.8	0.69	659	61.2	1.79	56	1.56
Cc1c(C(=O)NCCO)nc2n1-c1ccc(C(F)(F)F)c(Cl)c1C(c1ncccc1F)=N[C@H]2C [Example 154, (4S)-7-chloro-6-(3-fluoro-2-pyridyl)-N-(2-hydroxyethyl)-1,4-dimethyl-8-(trifluoromethyl)-4H-imidazo[1,2-a][1,4]benzodiazepine-2-carboxamide]	68.7	68.7	23	11400	166.6	2.22	191	2.91
